The target of this assay is Kinesin-like protein KIF20B (Homo sapiens) (UniProt Q96Q89). In words: Inhibition of MPP1 in human HeLaS3 cells assessed as induction of binucleate phenotype after 18 hrs. The note with it: HeLa S3. Format: cell-based.

The source made the active and inactive calls. No cut-off for these calls is given here.

Sequence of Kinesin-like protein KIF20B (Homo sapiens) (Q96Q89 whole entry): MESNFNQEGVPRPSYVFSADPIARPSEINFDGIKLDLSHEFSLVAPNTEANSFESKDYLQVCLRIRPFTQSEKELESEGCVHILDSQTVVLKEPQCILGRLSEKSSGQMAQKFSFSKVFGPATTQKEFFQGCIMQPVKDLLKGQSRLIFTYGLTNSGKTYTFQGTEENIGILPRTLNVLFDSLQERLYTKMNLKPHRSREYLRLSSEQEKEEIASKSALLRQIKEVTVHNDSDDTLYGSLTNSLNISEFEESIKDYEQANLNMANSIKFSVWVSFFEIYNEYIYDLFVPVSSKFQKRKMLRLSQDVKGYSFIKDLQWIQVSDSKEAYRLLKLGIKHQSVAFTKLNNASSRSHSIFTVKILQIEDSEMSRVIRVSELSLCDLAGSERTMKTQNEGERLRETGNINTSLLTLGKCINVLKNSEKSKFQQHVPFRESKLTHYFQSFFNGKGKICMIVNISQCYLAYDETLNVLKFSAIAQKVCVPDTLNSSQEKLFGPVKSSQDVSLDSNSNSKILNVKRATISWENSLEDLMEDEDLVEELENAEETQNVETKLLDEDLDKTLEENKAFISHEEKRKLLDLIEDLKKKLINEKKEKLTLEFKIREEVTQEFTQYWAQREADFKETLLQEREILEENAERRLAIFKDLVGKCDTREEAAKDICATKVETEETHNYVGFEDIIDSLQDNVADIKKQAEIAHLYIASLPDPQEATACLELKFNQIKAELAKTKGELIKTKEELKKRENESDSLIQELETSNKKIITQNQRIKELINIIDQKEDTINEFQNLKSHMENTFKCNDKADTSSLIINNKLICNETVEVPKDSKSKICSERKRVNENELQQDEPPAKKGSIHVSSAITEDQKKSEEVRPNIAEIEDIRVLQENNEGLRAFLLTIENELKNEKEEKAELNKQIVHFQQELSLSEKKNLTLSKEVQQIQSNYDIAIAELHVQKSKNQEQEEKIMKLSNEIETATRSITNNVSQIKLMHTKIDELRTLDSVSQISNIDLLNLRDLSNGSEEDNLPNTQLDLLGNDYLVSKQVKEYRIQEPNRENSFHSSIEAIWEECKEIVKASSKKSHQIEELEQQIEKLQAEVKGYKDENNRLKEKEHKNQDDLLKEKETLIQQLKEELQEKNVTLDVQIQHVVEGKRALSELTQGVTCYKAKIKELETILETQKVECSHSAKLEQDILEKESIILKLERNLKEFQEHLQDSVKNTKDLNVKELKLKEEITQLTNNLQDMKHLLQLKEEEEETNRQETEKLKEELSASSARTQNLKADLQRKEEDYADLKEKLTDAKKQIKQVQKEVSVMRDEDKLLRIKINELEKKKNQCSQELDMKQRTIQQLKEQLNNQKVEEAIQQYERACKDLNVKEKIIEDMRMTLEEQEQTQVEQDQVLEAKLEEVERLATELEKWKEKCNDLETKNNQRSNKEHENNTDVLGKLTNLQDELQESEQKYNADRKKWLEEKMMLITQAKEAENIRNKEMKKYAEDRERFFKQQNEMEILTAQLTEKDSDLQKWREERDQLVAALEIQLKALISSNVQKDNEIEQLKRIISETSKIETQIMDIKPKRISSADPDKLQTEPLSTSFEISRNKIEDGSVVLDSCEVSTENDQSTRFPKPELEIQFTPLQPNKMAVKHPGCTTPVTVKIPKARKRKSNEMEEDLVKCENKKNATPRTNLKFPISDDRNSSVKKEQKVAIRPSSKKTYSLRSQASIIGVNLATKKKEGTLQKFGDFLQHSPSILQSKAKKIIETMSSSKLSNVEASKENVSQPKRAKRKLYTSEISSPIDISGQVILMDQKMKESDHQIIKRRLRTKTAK

In the case of `FC(F)(F)c1cc(Cl)c2ncc(-c3ccc(Cl)c(Cl)c3)nc2c1`, the inhibition entry was “Active”.

The values above are taken from ChEMBL document CHEMBL3880384, “2-Phenylquinoxalines as inhibitors for MPP1” (2006).
